In patent US11331290B2, “Niclosamide for the treatment of cancer metastasis” (Max-Delbrück-Centrum für Molekulare Medizin in der …, priority 2011, dated 2022):

Columns and labels:
HCT116 cells = assay: Cytotoxicity (cell viability) of niclosamide; format: cell-based; details: Homo sapiens, HCT-116, 24 h, 95% CI 1.87 to 2.92 μM
Method: To determine an applicable niclosamide concentration, the cytotoxicity of niclosamide on HCT116 cells was analyzed. […] No change in S100A4 expression could be detected with concentrations below 1 μM niclosamide.
All calculations and statistical analyses were performed with GraphPad Prism version 4.01. Student t test was used for comparison of only two groups. One-way analysis of variance (ANOVA) was applied for comparing the control group with several treated groups followed by Bonferroni post hoc multiple comparisons. […] Kaplan-Meier analysis was used to plot overall survival and differences in curves were analyzed by Logrank test. […]
(A) Determination of the cytotoxicity of niclosamide on HCT116 cells. Cells were treated with increasing concentrations of niclosamide for 24 hours and cell viability was measured. […] S100A4 expression was determined by quantitative reverse-transcription-polymerase chain reaction (qRT-PCR) and immunoblot. […] HCT116 cells were treated with a single dose of 1 μM niclosamide for 24 hours and S100A4 expression was analyzed by qRT-PCR and immunoblot at indicated time points. […] HCT116 cells were treated daily with 1 μM niclosamide and S100A4 expression was analyzed by qRT-PCR and immunoblot. […]

S100A4 protein = S100A4 protein expression by immunoblot; format: cell-based, human; details: for S100A4 protein expression: 1 μM
Method: For total protein extraction cells were lysed with RIPA buffer (50 mM Tris-HCl, 150 mM NaCl, 1% Nonidet P-40, supplemented with complete protease inhibitor tablets; Roche) for 30 minutes on ice. For isolation of the nuclear protein fraction, the NE-PER Nuclear and Cytoplasmic Extraction Kit (Pierce) was used according to the manufacturer's instructions. Protein concentration was quantified with Bicinchoninic Acid (BCA) Protein Assay Reagent (Pierce) according to manufacturer's instructions and lysates of equal protein concentration were separated with SDS-PAGE and transferred to Hybond C Extra nitrocellulose membrane (Amersham Biosciences). Membranes were incubated in blocking solution containing 5% nonfat dry milk and 1% bovine serum albumin (BSA) for 1 hour at room temperature. Membranes were incubated overnight at 4° C. with rabbit anti-human-S100A4 antibody (dilution, 1:1500), mouse anti-human-CTNNB1 antibody (dilution, 1:1000), mouse anti-human TUBB1 antibody (dilution, 1:1000), goat anti-human GAPDH antibody (dilution, 1:500) or mouse anti-human PCNA antibody (dilution, 1:1000) followed by incubation for 1 hour at room temperature with HRP-conjugated anti-goat (dilution, 1:10000), anti-rabbit (dilution, 1:10000), anti-mouse IgG (dilution, 1:10000) or anti-mouse IgM (dilution, 1:10000) antibody. Antibody-protein-complexes were visualized with electrochemical-luminescence (ECL) reagent (100 mM Tris-HCl, 0.025% w/v luminol, 0.011% w/v para-hydroxycoumaric acid, 10% v/v dimethylsulfoxide, 0.004% v/v H2O2, pH 8.6) and subsequent exposure to CL-XPosure™ Films (Pierce) for 1 second to 20 minutes. Immunoblotting for GAPDH and PCNA served as protein loading control. Immunoblotting for β-tubulin was used to control that nuclear extracts were free from cytoplasmatic protein. All experiments were performed at least three independent times.
(A) Determination of the cytotoxicity of niclosamide on HCT116 cells. Cells were treated with increasing concentrations of niclosamide for 24 hours and cell viability was measured. (B) Effect of increasing concentrations of niclosamide on S100A4 expression. HCT116 cells were treated with increasing concentrations of niclosamide for 24 hours. S100A4 expression was determined by quantitative reverse-transcription-polymerase chain reaction (qRT-PCR) and immunoblot. (C) Time-dependency of niclosamide effect on S100A4 expression. HCT116 cells were treated with a single dose of 1 μM niclosamide for 24 hours and S100A4 expression was analyzed by qRT-PCR and immunoblot at indicated time points. Black bar indicates the chosen treatment conditions for further experiments. (D) Effect of daily doses of niclosamide on S100A4 expression. HCT116 cells were treated daily with 1 μM niclosamide and S100A4 expression was analyzed by qRT-PCR and immunoblot. Data is given as mean±SD (n>2). Differences in treated groups were compared with the control group by two-sided one-way analysis of variances and Bonferroni post hoc multiple comparison test.
(E) Effect of niclosamide in HCT116-vector and HCT116-S100A4 cells. HCT116-vector and HCT116-S100A4 cells were treated with 1 μM niclosamide for 24 hours and S100A4 expression was analyzed by qRT-PCR and immunoblot. Data is given as mean±SD (n>2). Comparison of niclosamide vs. solvent-treated cells was analyzed with Student's t test.
(A) S100A4 expression under niclosamide treatment. Cells were treated with 1 μM niclosamide for 24 hours. S100A4 expression was analyzed with qRT-PCR and immunoblot. (B) Cell migration under niclosamide treatment. Migration rates of cells treated with 1 μM niclosamide for 24 hours were determined in a Boyden chamber assay values were normalized to solvent-treated SW620 cells. (C) Cell invasion under niclosamide treatment. Cells were seeded onto Matrigel covered transwells and treated with 1 μM niclosamide for 24 hours. Invaded cells in the lower chamber were counted and normalized to solvent-treated SW620 cells. […]

## O=C(Nc1ccc([N+](=O)[O-])cc1Cl)c1cc(Cl)ccc1O [niclosamide, 2′,5-dichloro-4′-nitrosalicylanilide]
HCT116 cells
  EC50: 2200 nM
S100A4 protein; DLD-1 cells, 24 h (solvent and niclosamide-treated)
  S100A4 protein expression: no S100A4 protein was detected
S100A4 protein; HCT116, 0.1 μM to 2.5 μM, 24 h
  S100A4 protein level: reduced in a concentration-dependent manner
S100A4 protein; HCT116, 1 μM daily
  S100A4 protein level, % of solvent-treated control cells: approximately 50%
S100A4 protein; HCT116, three days following discontinuation of niclosamide treatment
  S100A4 protein: clearly reduced
S100A4 protein; HCT116-S100A4, 1 μM, 24 h
  S100A4 protein level: no reduction
S100A4 protein; Homo sapiens, HCT-116, HCT116, 1 μM, single dose, 24 hours, read-out: S100A4 protein level, % of control
  activity at 1 µM: < 50%
S100A4 protein; SW620, LS174T and SW480 cells, 24 h
  S100A4 protein expression: reduced
